{
  "source": "patent US20230084927A1",
  "about": "“GLUCOSE UPTAKE INHIBITORS AND USES THEREOF” (METABOMED LTD., priority 2019, published 2023)",
  "key": {"SDH-WT cells": {"system": "SDH-WT cells", "assay": "Cellular / differential toxicity assay (CellTiter-Glo, 3 days)", "type": "cell-based, murine", "settings": "Mus musculus, 72 h, SDH-WT cells", "summary_of_the_method": "(§1)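 Isogenic SDHB-deficient (HRAS-transformed SDH-KO) and SDH-WT cells grown in DMEM-F12 with 1 mM glutamine and 3% FBS, plated with compound (10-point dilution from 10 uM to 0.0065 uM or lower) for 3 days at 37 °C, 5% CO2. Viability by CellTiter-Glo luminescence; EC50 calculated.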"}, "[1]": {"system": "SDH-KO-HRAS cells (SDHB-deficient)", "assay": "Cellular / differential toxicity assay (CellTiter-Glo, 3 days)", "type": "cell-based, murine", "settings": "for EC50: Mus musculus, 72 h, SDH-KO cells", "summary_of_the_method": "as §1"}, "[2]": {"system": "m+3 lactate secretion (glycolysis) in SDH-WT cells", "assay": "Glycolysis inhibition (IC50 Lactate m+3)", "type": "cell-based", "settings": "1 h, 25 mM 13C-glucose, one hour", "method": "(§2) Glycolysis Inhibition (IC50 Lactate m+3)\n(§3) Cell were plated in DMEM, 25 mM Glucose, 1 mM Pyruvate, 1 mM Glutamine and 10% Dialyzed serum in 96 well plates in triplicates. The day after the medium was replaced to fresh medium with 25 mM ^13C-glucose and treated with different concentrations of the compounds as indicated. One hour later the medium was collected and the level of m+3 lactate was determined by LC-MS. The IC50 of inhibition of m+3 lactate secretion into the medium was calculated with Prism."}, "[3]": {"system": "m+3 lactate secretion (glycolysis) in SDH-KO cells", "assay": "Glycolysis inhibition (IC50 Lactate m+3)", "type": "cell-based", "settings": "1 h, 25 mM 13C-glucose, one hour", "method": "as §2, §3"}, "[4]": {"assay": "PK profile (plasma and brain concentration)", "type": "in vivo", "method": "FIG. 14 describes the pharmacokinetics of compound 332.\nFIG. 14A depicts the Mean Plasma Concentration of Compound 332 after IP7, IV bolus1 and PO2 Dosing. FIG. 14B depicts the Mean Brain Concentration of Compound 332 after IP Dosing at 2.50 mg/kg and FIG. 14C depicts the Mean Brain Concentration of Compound 332 after IV bolus Dosing at 2.50 mg/kg."}, "[5]": {"system": "SDH-KO cells (SDH-deficient tumors)", "assay": "Tumor volume of SDH-KO cells vs. time in mice on ketogenic diet", "type": "in vivo", "settings": "treated two weeks post-injection, prior to tumor formation", "text": "FIG. 10 depicts the tumor volume of SDH-KO cells vs. time in mice on ketogenic diet, treated for two weeks post-injection, but prior to tumor formation."}, "[6]": {"assay": "Plasma glucose levels in mice after oral administration", "type": "in vivo", "settings": "2 mg/Kg", "method": "FIG. 8 depicts the glucose levels in mice plasma after oral administration of 2 mg/Kg of compound 111. Compound 111 at 2 mg/kg was orally administrated to mice. Blood samples were taken at different time points thereafter and Glucose level was determined."}, "HCT116 (Colon cancer)": {"system": "HCT116 (Colon cancer)", "assay": "Toxicity assay with or without rotenone", "type": "cell-based", "settings": "Homo sapiens, HCT-116, 72 hours", "method": "(§4) Toxicity assay: Cells were growing in 96 well plates in DMEM F12 with 17 mM glucose, 0.5 mM Sodium Pyruvate, 1 mM Glutamine and 3% FBS. The cells were treated with the indicated compounds (10 different concentrations) with or without 25 nM rotenone. Viability was determined after 72 hours of treatment using CellTiter Glo reagent (Promega). EC50 was calculated using Prism software."}, "[7]": {"system": "Panc1 (Pancreatic cancer)", "assay": "Toxicity assay with or without rotenone", "type": "cell-based", "settings": "Homo sapiens, PANC-1, 72 hours", "method": "as §4"}, "MM.1S (Multiple myeloma)": {"system": "MM.1S (Multiple myeloma)", "assay": "Toxicity assay with or without rotenone", "type": "cell-based", "settings": "Homo sapiens, MM1.S, 72 hours", "method": "as §4"}, "[8]": {"system": "MDA-MB-468 (Breast cancer)", "assay": "Toxicity assay with or without rotenone", "type": "cell-based", "settings": "Homo sapiens, 72 hours", "method": "as §4"}, "[9]": {"system": "MiaPaca2 (Pancreatic cancer)", "assay": "Toxicity assay with or without rotenone", "type": "cell-based", "settings": "Homo sapiens, MIA PaCa-2, 72 hours", "method": "as §4"}, "[10]": {"assay": "Glucose levels and Maximum Tolerated Dose in mice at different diets", "type": "in vivo", "text": "Glucose Levels as Measured in Mice after Different Dosages of Compound 111 at Different Diets."}, "[11]": {"settings": "72 hours, Example 7, read-out: EC50 Tox"}, "[12]": {"settings": "toxicity, 3 days, CellTiter-Glo, read-out: EC50 (uM) SDH-WT"}, "[13]": {"settings": "toxicity, 3 days, CellTiter-Glo, read-out: EC50 (uM) SDH-KO-HTAS-C17"}},
  "note": "Where two headings read alike, the source gives them in different places.",
  "data": [
    {"smiles": "COCc1c2c(nc3sc4c(NCCc5ccc6[nH]cnc6c5)ncnc4c13)CC(C)(C)OC2", "note": "[Compound 308, N-(2-(1H-Benzo[d]imidazol-5-yl)ethyl)-11-(methoxymethyl)-8,8-dimethyl-7,10-dihydro-8H-pyrano[3″,4″:5′,6′]pyrido[3′,2′:4,5]thieno[3,2-d]pyrimidin-4-amine]", "values": [
      {"measurement": "EC50", "setting": "SDH-WT cells; [11]", "result": 2.17, "unit": "µM"},
      {"measurement": "EC50", "setting": "SDH-WT cells; [12]", "result": "1 to 3", "unit": "µM"},
      {"measurement": "EC50", "setting": "[1]; [11]", "result": 0.004, "unit": "nM"},
      {"measurement": "EC50", "setting": "[1]; [13]", "result": "< 1000", "unit": "nM"},
      {"measurement": "differential effect between SDH-WT and KO cells (EC50 Tox)", "setting": "[1]; cell viability, Example 7", "result": "> 500,000 folds"},
      {"measurement": "IC50", "setting": "[2]", "result": 0.15, "unit": "nM"},
      {"measurement": "IC50", "setting": "[3]", "result": 0.03, "unit": "nM"}
    ]},
    {"smiles": "COCCOCc1c2c(nc3sc4c(NCCc5ccc6[nH]cnc6c5)ncnc4c13)CC(C)(C)OC2", "note": "[Compound 332]", "values": [
      {"measurement": "EC50", "setting": "SDH-WT cells; [12]", "result": "1 to 3", "unit": "µM"},
      {"measurement": "EC50", "setting": "[1]; [13]", "result": "< 1000", "unit": "nM"},
      {"measurement": "differential toxicity, SDH-KO cells compared to SDH-WT cells", "setting": "[1]; viability EC50s, 72 hours, Example 6", "result": 235},
      {"measurement": "oral bioavailability", "setting": "[4]; PO dosing vs IV bolus, plasma", "result": "low"},
      {"measurement": "brain penetration", "setting": "[4]; brain concentration after IP and IV bolus dosing at 2.50 mg/kg", "result": "brain penetrant"}
    ]},
    {"smiles": "CC(=O)Nc1ccc(CCNc2ncnc3c2sc2nc4c(cc23)COC(C)(C)C4)cc1", "note": "[Compound 111]", "values": [
      {"measurement": "tumor onset and growth (tumor volume vs. time)", "setting": "[5]", "result": "delays tumor onset and growth"},
      {"measurement": "level of glucose in the plasma", "setting": "[6]", "result": "increase"},
      {"measurement": "EC50", "setting": "HCT116 (Colon cancer); HCT116, with 25 nM rotenone, read-out: EC50 (nM) with Rotenone", "result": 510, "unit": "nM"},
      {"measurement": "EC50", "setting": "HCT116 (Colon cancer); HCT116, without rotenone, read-out: EC50", "result": 9700, "unit": "nM"},
      {"measurement": "EC50", "setting": "[7]; Panc1, with 25 nM rotenone, read-out: EC50 (nM) with Rotenone", "result": 91, "unit": "nM"},
      {"measurement": "EC50", "setting": "[7]; Panc1, without rotenone, read-out: EC50", "result": 136000, "unit": "nM"},
      {"measurement": "EC50", "setting": "MM.1S (Multiple myeloma); with 25 nM rotenone, read-out: EC50 (nM) with Rotenone", "result": 52, "unit": "nM"},
      {"measurement": "EC50", "setting": "MM.1S (Multiple myeloma); without rotenone, read-out: EC50", "result": 79000, "unit": "nM"},
      {"measurement": "EC50", "setting": "[8]; MDA-MB-468, with 25 nM rotenone, read-out: EC50 (nM) with Rotenone", "result": 1400, "unit": "nM"},
      {"measurement": "EC50", "setting": "[8]; MDA-MB-468, without rotenone, read-out: EC50", "result": "> 30000", "unit": "nM"},
      {"measurement": "EC50", "setting": "[9]; MiaPaca2, with 25 nM rotenone, read-out: EC50 (nM) with Rotenone", "result": 61, "unit": "nM"},
      {"measurement": "EC50", "setting": "[9]; MiaPaca2, without rotenone, read-out: EC50", "result": 37000, "unit": "nM"},
      {"measurement": "EC50", "setting": "SDH-WT cells; [12]", "result": "> 10", "unit": "µM"},
      {"measurement": "EC50", "setting": "[1]; [13]", "result": "< 1000", "unit": "nM"},
      {"measurement": "elevation in plasma glucose levels on ketogenic diet", "setting": "[10]; ketogenic diet", "result": "delayed"},
      {"measurement": "Maximum Tolerated Dose (MTD) on ketogenic diet", "setting": "[10]; ketogenic diet vs other diet", "result": "doubled"},
      {"measurement": "tolerability on ketogenic diet", "setting": "[10]; ketogenic diet, two weeks of treatment", "result": "up to 4 mg/Kg"}
    ]}
  ]
}
